The source of these data is PubChem BioAssay (NCI).

SMILES strings stand for the structures.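 Cells were grown in 96-well plates and exposed to each compound for 48 hours at five concentrations; endpoints were interpolated linearly between bracketing concentrations, or set to the highest concentration if not reached. Definition used: TGI = concentration required for complete inhibition of growth.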

Common to all, as to assay: DTP human tumour cell line panel, 48 h
Test [1] deals with 786-0 renal.
In test [2] the test system is A498 renal.
Test [3] concerns A549 NSCLC.
In test [4] the test system is COLO 205 colon.
Test [5] relates to DU-145 prostate.
Test [6] relates to EKVX NSCLC.
Test [7] concerns HOP-92 NSCLC.
The subject of test [8] is HT29 colon.
The subject of test [9] is IGROV1 ovarian.
For test [10], the system named is MOLT-4 leukemia.
Test [11] deals with NCI-H226 lung.
Test [12] deals with NCI-H23 lung.
Test [13] has as its system NCI-H460 lung.
Test [14] concerns OVCAR-3 ovarian.
Test [15] relates to OVCAR-5 ovarian.
The test system of test [16] is OVCAR-8 ovarian.
For test [17], the system named is SK-MEL-2 melanoma.
Test [18] deals with SNB-75 CNS.
Test [19] concerns SW-620 colon.
For test [20], the system named is UACC-257 melanoma.

`O=C1CCCC1C(O)(C(F)(F)F)C(F)(F)F` (stereo unspecified): the TGI in [1], in test [2], in [3], in test [4], in test [5] and in [6] was over 100 µM each time. In addition, the total growth inhibition concentration (TGI) in test [7], in [8], in test [9], in [10], in test [11] and in test [12] was over 100 µM throughout. For the same molecule, the TGI in test [13], in test [14], in [15], in test [16], in test [17] and in test [18] was over 100 µM each time. For the same molecule, the concentration for total growth inhibition (TGI) in [19] and in [20] was over 100 µM throughout.
For the molecule `Cc1c2c(Cl)c3c(c(Cl)c2c(C)c2c(Cl)c4c(c(Cl)c12)C(c1ccccc1)(c1ccccc1)C4(c1ccccc1)c1ccccc1)C(c1ccccc1)(c1ccccc1)C3(c1ccccc1)c1ccccc1`, the TGI in test [1], in test [2], in test [3], in test [4], in test [5] and in test [6] was over 100 µM in each case. For the same molecule, the concentration for total growth inhibition (TGI) in [7], in test [8], in test [9], in test [10], in [11] and in test [12] was over 100 µM throughout. The TGI in test [13], in [14], in test [15], in test [16], in test [17] and in test [18] was over 100 µM throughout. In addition, the TGI in test [19] and in [20] was over 100 µM throughout.
As to `COc1ccc(/C=C2\N=C(SC)N(CN3CCCCC3)C2=O)cc1`, the TGI in test [1], in test [2], in test [3], in [4], in test [5] and in [6] was over 100 µM each time. The TGI in test [7], in test [8], in test [9], in test [10], in [11] and in test [12] was over 100 µM each time. In addition, the TGI in [14], in test [15], in [16], in test [17], in test [18] and in test [19] was over 100 µM throughout.
In the case of `CC1=C(C)C1[N+](=O)[O-]`, the TGI in test [1], in test [2], in test [3], in test [4], in test [5] and in test [6] was over 100 µM in each case. Also, the concentration for total growth inhibition (TGI) in test [7], in test [8], in test [9], in test [10], in [11] and in [12] was over 100 µM each time. The TGI in [13], in test [14], in [15], in [16], in test [18] and in [19] was over 100 µM in each case. Further, in test [20], the TGI was over 100 µM.
As to `CC(C)(C)OC(=O)NC(CCC(=O)OCc1ccccc1)C(=O)NCCCO` (stereo unspecified), the TGI in [1], in [2], in [3], in test [5], in test [6] and in test [7] was over 100 µM in each case. The TGI in test [8], in test [9], in [10], in [11], in test [12] and in test [13] was over 100 µM in each case. Besides, the TGI in test [14], in test [15], in [16], in test [17], in [18] and in test [19] was over 100 µM each time. This molecule returned a TGI in test [20] of over 100 µM.
For the molecule `COC(=O)CN1SC2(SC13C(C)(C)C(=O)C3(C)C)C(C)(C)C(=O)C2(C)C`, the TGI in [1], in test [2], in test [3], in test [4], in [5] and in [6] was over 100 µM each time. Besides, the TGI is 21.3 µM in test [7]; over 100 µM in test [8]; over 100 µM in test [9]; over 100 µM in [10]; 93.8 µM in [11]; over 100 µM in test [12]. The TGI in test [14], in [15], in [16], in test [17], in test [18] and in test [19] was over 100 µM in each case. The same molecule came in with a TGI in test [20] of over 100 µM.
Take `C#C[C@]1(O)CC[C@H]2[C@@H]3CCC4=C/C(=N/NC(=O)c5cccc6cc7ccccc7nc56)CC[C@@H]4[C@H]3CC[C@@]21CC`: the TGI in test [1], in [2], in test [3], in [4], in test [5] and in test [7] was over 100 µM each time. Further, the TGI in [8], in [9], in test [10], in test [11], in [12] and in [13] was over 100 µM in each case. The TGI in [14], in test [15], in test [16], in test [17], in test [18] and in test [19] was over 100 µM throughout. In addition, the TGI in test [20] was over 100 µM.
Consider `CCOC(=O)[C@@H]1CCN2CN(c3ccc(OC)cc3)N=C(c3ccccc3)[C@@]12c1ccccc1`, for which the TGI is 51.7 µM in test [1]; 53.5 µM in test [2]; over 100 µM in [3]; 61.3 µM in test [4]; 70.7 µM in test [5]; over 100 µM in test [6]. For the same molecule, the TGI in test [7] was 27.9 µM; in test [8] it was 72.4 µM; in [9] it was 72.1 µM; in [10], over 100 µM; in test [11], 38.9 µM; in test [12], 73.5 µM. Besides, the TGI in [13] is over 100 µM; in test [15] it was over 100 µM; in test [16] it was 61.3 µM; in [17] it was 46.1 µM; in test [18] it was 57.7 µM; in test [19] it was over 100 µM. The molecule also had a TGI in [20] of 49.7 µM.
Take `O=C(Nc1ccccc1)n1[nH]c(=O)n(-c2ccccc2)c1=O`: the TGI in test [1], in test [2], in test [3], in test [4], in [5] and in [7] was over 100 µM each time. Also, the TGI in test [8], in test [11], in [12], in test [13], in test [16] and in test [17] was over 100 µM each time. Moreover, the concentration for total growth inhibition (TGI) in [18], in [19] and in test [20] was over 100 µM each time.
As for `CN(C(=O)C1CCCCCC1=O)c1ccccc1Cl` (stereo unspecified), the total growth inhibition concentration (TGI) in test [1], in test [2], in test [3], in test [4], in [5] and in [6] was over 100 µM in each case. For the same molecule, the TGI in test [7], in test [8], in test [9], in [10], in [11] and in [12] was over 100 µM each time. The TGI in test [13], in test [14], in test [15], in test [16], in test [18] and in test [19] was over 100 µM in each case. In test [20], this molecule returned a TGI of over 100 µM.
For the molecule `CC1=NN(C(=O)CC(=O)Nc2ccc(C)cc2)C(=O)C1N=Nc1ccc(S(=O)(=O)c2ccc(N=NC3C(=O)N(C(=O)CC(=O)Nc4ccc(C)cc4)N=C3C)cc2)cc1` (stereo unspecified), the TGI in test [1], in [2], in test [3], in test [4], in test [5] and in [6] was over 100 µM throughout. The TGI in [7], in test [9], in test [10], in [11], in test [12] and in [13] was over 100 µM each time. Besides, the TGI in [14], in [15], in test [16], in [17], in [18] and in test [19] was over 100 µM each time. In [20], this molecule gave a TGI of over 100 µM.
